Test results published in US20080299076A1, “Compunds and compositions that cause non-apoptotic cell death and uses thereof” (priority 2006, published 2008).
Entries after “also recorded” stand apart in the source; their conditions may differ. Where two headings read alike, the source gives them in different places.

How the values were obtained:
[1] = test system: BJ-TERT/LT/ST/RAS^V12 cells; experiment: Suppression of erastin-induced cell death (suppressor screen and follow-up); type: cell-based, human; settings: co-treatment with erastin
[2] = test system: vinblastine resistant CCRF-CEM derivative cells; experiment: Cell death in taxol/vinblastine resistance panel; type: cell-based; settings: Homo sapiens
Method: (§1) In certain embodiments, the sensitivity to erastin, can be tested in cell lines that are resistant to taxol and vinblastine. The sensitivity of CCRF-CEM parental, and taxol and vinblastine resistant derivative cells to erastin was tested. […] Erastin analogues can be tested to ensure their effectiveness in inducing cell death in tumor cell line which are resistant to taxol or vinblastin, or other ant-tumor agents.

CCRF-CEM parental cells = experiment: Cell death in taxol/vinblastine resistance panel; type: cell-based; settings: Homo sapiens
Method: as §1

[3] = test system: taxol resistant CCRF-CEM derivative cells; experiment: Cell death in taxol/vinblastine resistance panel; type: cell-based; settings: Homo sapiens
Method: as §1

[4] = test system: BJ-TERT/LT/ST/RAS^V12 cells; experiment: Alamar Blue viability assay; type: cell-based, human; settings: for IC50: BJ-TERT/LT/ST/RAS^V12 (BJELR) cells, read-out: IC50 (lethality); for Selective lethality / activity of erastin analog: BJ-TERT/LT/ST/RAS^V12 cells versus BJ-TERT cells
Method: (a) Calu-1 lung carcinoma cells harboring oncogenic KRAS were infected with lentivirus containing shRNAs targeting KRAS or GFP. Sequences of shRNAs are indicated by starting nucleotide (nt) in the KRAS mRNA coding sequence. Cells were treated with erastin and viability measured by Trypan Blue exclusion. (b) Knockdown of KRAS was confirmed by western blot. (c,d) A673 cells harboring oncogenic BRAF were infected with lentiviral shRNAs targeting BRAF exon 5 (c) or the 5′ UTR (d), luciferase (LUC) (c) or GFP (d). Cells were treated with erastin and viability measured using Alamar Blue (c) and Trypan Blue (d). (e) Knockdown of BRAF was confirmed by western blot. […] BJ-TERT/LT/ST/RAS^V12 cells were treated with erastin alone or in with a MEK inhibitor U0126 (20 μM), MEK inhibitor I (10 μM) or MEK 1/2 inhibitor (50 μM). After 48 h, viability was determined using Trypan Blue. (g) Structures of certain erastin and related analogs. (h) and (i) Dose-response curves were measured for erastin A3 and erastin B2 in BJ-TERT/LT/ST/RAS^V12 cells (black squares) or BJ-TERT cells (grey circles). (j) Calu-1 lung carcinoma cells harboring oncogenic KRAS were infected with lentivirus containing shRNAs targeting KRAS or GFP. Sequences of shRNAs are indicated by starting nucleotide (nt) in the KRAS mRNA coding sequence. Cells were treated with erastin and viability (y-axis) measured by Trypan Blue exclusion. Cells were treated with erastin for 24 hours, and percent inhibition of viability (y-axis) measured using Alamar Blue (k) and Trypan Blue (l). (m) Structures of erastin and related analogs. (n) Dose-response curves were measured for erastin A6, erastin B2, erastin A8 and erastin A9 in BJ-TERT/LT/ST/RAS^V12 cells (squares) or BJ-TERT cells (circles) using Alamar Blue.
Alamar Blue metabolism: 10% Alamar Blue was added to assay plates, which were then incubated for an additional 16 hours. Red fluorescence, resulting from reduction of Alamar Blue, was detected on a Victor3 platereader (ex: 530, em: 590).
Table 2. Activity of RAS-selective lethal compound erastin in tumor cell lines. IC50 values (ng/mL) are shown using the Alamar Blue viability assay. BJ engineered tumor cells express TERT, LT, ST, and oncogenic RAS. Isogenic RAS^V12 lacking cells are identical but lack HRAS^V12. BJ-DRD cells are derived from BJ cells and contain TERT, oncogenic RAS, a truncated from of p53 (p53DD) that disrupts the tetramerization of endogenous p53, a CDK4(R24C) mutant resistant to inhibition by p16INK4A and p151NK4B (the major negative regulators of CDK4) and cyclin D1. These latter protein substitute for LT. HCT-116, A549, Calu-1, and MIA PaCa-2 are tumor cells derived from cancers (colon, lung, lung and pancreatic, respectively) known to have activating mutations in RAS.

VDAC2 = target: T1, VDAC2 (Homo sapiens, UniProt P45880); experiment: VDAC2 binding assay (competition with radiolabelled erastin A9); settings: competition with tritium-labeled erastin A9
T1 construct: hexahistidine (pET-15b, thrombin site) (N); made in house; host or cells: E. coli
T1 sequence (P45880 1-294): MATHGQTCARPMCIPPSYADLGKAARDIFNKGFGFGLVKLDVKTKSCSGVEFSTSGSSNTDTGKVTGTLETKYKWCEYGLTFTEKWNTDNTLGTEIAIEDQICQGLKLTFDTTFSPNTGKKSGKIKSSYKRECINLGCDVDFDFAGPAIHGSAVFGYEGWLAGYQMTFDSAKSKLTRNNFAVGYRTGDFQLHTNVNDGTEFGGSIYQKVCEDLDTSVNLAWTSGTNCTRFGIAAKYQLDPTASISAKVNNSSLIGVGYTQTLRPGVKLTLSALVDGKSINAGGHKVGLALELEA
Method: Given the interactions between erastin and VDAC using affinity-based target identification and VDAC functional assays, the direct binding of erastin to VDACs was investigated.
VDAC2 protein was isolated from E. coli using a modified version of the protocol originally described by Koppel et al. Bacterial cultures were grown in LB containing 50 mg/L ampicillin to an OD of 0.6, and induced using […] IPTG overnight. Cultures were harvested by centrifugation at 6000×g for 10 min. The pellet was then washed with dH2O and resuspended in buffer (20% sucrose, 20 mM Tris, pH 8.0, […] lysozyme) and incubated at 25° C. for 10 minutes. The lysate was then sonicated for 2×30 seconds and centrifuged at 15000×g for 20 minutes. The pellet was resuspended in resuspension buffer (4.5 M guanidine-HCl, 0.1M NaCl, 20 mM Tris, pH 8.0) and incubated for 1 hour at 25° C. The suspension was then centrifuged (20 minutes, 15000×g), and the supernatant was loaded on a NI-NTA Superflow column (Qiagen) pre-equilibrated with 5 volumes of resuspension buffer. The column was washed with 5 column volumes of resuspension buffer containing 10 mM imidazole. The protein was then eluted using resuspension buffer containing 225 mM imidazole. The eluate was dialysed against 0.1 M NaCl, 20 mM Tris, pH 8.0, and 2% LDAO (Fluka) overnight, and then concentrated via centrifugation to 4 mg/mL.
To assay direct binding of erastin analogs, 40 μg of purified VDAC2 was resuspended in 100 μL of Binding Buffer (25 mM HEPES, pH 8.0, 0.1% BSA, 7 mM MgCl2, 15 mM NaCl), and incubated in the presence of 20 μM radiolabelled erastin A9 and erastin A9 or erastin A8 for 15 minutes. The mixture was then deposited onto Protran BA85 0.45 μM binding filters (Whatman) using vacuum filtration. The filter was rinsed 5 times with 1 mL wash buffer (25 mM HEPES, 0.1% BSA), and then incubated in 5 mL scintillation liquid (Cytoscint, MP Biomedicals). Radioactivity was detected on a LKB Wallac 1211 RACKBETA Liquid Scintillation Counter.

COC(=O)CC(NC(=O)OC(C)(C)C)C(=O)CF (centres unmarked) [Boc-Asp(Ome)-fluoromethyl ketone]
Effect on erastin-induced cell death [1]: does not block cell death induced by erastin

CC(=O)O[C@H]1C(=O)[C@@]2(C)[C@H]([C@H](OC(=O)c3ccccc3)[C@]3(O)C[C@H](OC(=O)[C@H](O)[C@@H](NC(=O)c4ccccc4)c4ccccc4)C(C)=C1C3(C)C)[C@]1(OC(C)=O)CO[C@@H]1C[C@@H]2O [taxol]
IC50 [2]: 1380 nM | IC50 (CCRF-CEM parental cells): 1 nM | IC50 [3]: 560 nM

Oc1ncnc2[nH]ncc12 [allopurinol]
Effect on erastin-induced cell death [1]: did not affect erastin-induced cell death

CC(C)NC(=O)N(CCN1CCN(C(=O)COc2ccc(Cl)cc2)CC1)Cc1ccc(F)cc1 [erastin B1]
IC50 [4]: 10 µM | Selective lethality / activity of erastin analog [4]: inactive

CC(C)NC(=O)N(CCN1CCN(C(=O)COc2ccc(Cl)cc2)CC1)Cc1ccc(CN)cc1 [erastin B2, 1-(4-Aminomethyl-benzyl)-1-(2-{4-[2-(4-chloro-phenoxy)-acetyl]-piperazin-1-yl}-ethyl)-3-isopropyl-urea]
Selective lethality / activity of erastin analog [4]: lacking activity in cells; also recorded: lacks activity | IC50 ([4]; Homo sapiens): > 50 µM

Cc1cc(C(C)(C)C)c(O)c(C(C)(C)C)c1 [butylated hydroxytoluene]
Effect on erastin-induced cell death [1]: prevented erastin-induced death

CC(C)(Oc1ccc(C2CC2(Cl)Cl)cc1)C(=O)O (centres unmarked) [ciprofibrate]
Effect on erastin-induced cell death [1]: did not affect erastin-induced cell death

CCOc1ccccc1-n1c(C(C)N2CCN(C(=O)COc3ccc(CN)cc3)CC2)nc2ccccc2c1=O (centres unmarked) [erastin A6, 2-(1-{4-[2-(4-Aminomethyl-phenoxy)-acetyl]-piperazin-1-yl}-ethyl)-3-(2-ethoxy-phenyl)-3H-quinazolin-4-one]
Selective lethality / activity of erastin analog ([4]; listed as ERA-A6): selectively lethal to RAS^V12-expressing cells

COc1ccc2[nH]cc(CCNC(C)=O)c2c1 [melatonin]
Effect on erastin-induced cell death [1]: did not affect erastin-induced cell death

C[C@@H]1C[C@@H]([C@H](O)CC2CC(=O)NC(=O)C2)C(=O)[C@@H](C)C1 [cyclohexamide]
Effect on erastin-induced cell death [1]: suppressed

Cn1cnc(N)c2ncnc1-2 [3-methyladenine]
Effect on erastin-induced cell death [1]: not suppressed

CC1=C(/C=C/C(C)=C/C=C/C(C)=C/C=C/C=C(C)/C=C/C=C(C)/C=C/C2=C(C)CCCC2(C)C)C(C)(C)CCC1 [beta-carotene]
Effect on erastin-induced cell death [1]: prevented erastin-induced death

CC[C@]1(O)C[C@@H]2CN(CCc3c([nH]c4ccccc34)[C@@](C(=O)OC)(c3cc4c(cc3OC)N(C)[C@H]3[C@@](O)(C(=O)OC)[C@H](OC(C)=O)[C@]5(CC)C=CCN6CC[C@]43[C@@H]65)C2)C1 [vinblastine]
IC50 [2]: 370 nM | IC50 (CCRF-CEM parental cells): 1 nM | IC50 [3]: 93 nM

CCOc1ccccc1-n1c(C(C)N2CCN(C(=O)COc3ccc(Cl)cc3)CC2)nc2cc(NC(C)=O)ccc2c1=O (centres unmarked) [erastin A9, N-[2-(1-{4-[2-(4-chloro-phenoxy)-acetyl]-piperazin-1-yl}-ethyl)-3-(2-ethoxy-phenyl)-4-oxo-3,4-dihydro-quinazolin-7-yl]-acetamide]
Direct binding to VDAC2 (VDAC2): directly binds VDAC2 | Kd (VDAC2): 112 nM | IC50 ([4]; Homo sapiens): 1.9 µM

CCOc1ccccc1-n1c(C(C)N2CCN(C(=O)COc3ccc(CN)cc3)CC2)nc2ccccc2c1=O (centres unmarked) [erastin A3]
IC50 [4]: 25 µM | Selective lethality / activity of erastin analog [4]: retained the ability to selectively kill BJ-TERT/LT/ST/RAS^V12 cells; also recorded: retained the ability to kill BJ-TERT/LT/ST/RAS^V12 cells but not BJ-TERT cells

Cc1c(C)c2c(c(C)c1O)CC[C@@](C)(CCC[C@H](C)CCC[C@H](C)CCCC(C)C)O2 [alpha-tocopherol]
Effect on erastin-induced cell death [1]: prevented erastin-induced death

O=c1[nH]c(=O)c2c[nH]nc2[nH]1 [oxypurinol]
Effect on erastin-induced cell death [1]: did not affect erastin-induced cell death
